Test results: patent publication US20160223525A1, “METHOD OF SCREENING FOR COMPOUNDS USEFUL IN THE TREATMENT OF ALZHEIMER DISEASE” (INNOVATIVE CONCEPTS IN DRUG DEVELOPMENT, priority 2013, published 2016)

Columns and labels:
[1] = tested on: Patient-derived fibroblasts (AD patient, affected cells); test: Reversal of the AD-signature (mitochondrial behaviour variables V3, V5, V7, V11, V19) by dynamic imaging of MitoTracker green-labelled live cells; type: cell-based, human; conditions: for overall rescue of the diseased (AD) phenotype, weighted by discriminant equation: 30 min incubation, healthy control=100%, AD control=0%; for overall rescue / reversal of the AD-signature, dose-response: across tested doses (0.05/0.1 to 10 μM)
Procedure: Fibroblasts were labelled with MitoTracker green, a cell-permeant mitochondrial dye not sensitive to mitochondrial membrane potential, for 30 minutes. Images were recorded from an epifluorescence microscope continuously for 6 minutes. Cells were kept at 37° C. for the duration of the image capture. For each experimental condition, 3 to 15 cells were recorded per well from three independent plates, i.e. up to 6000 individual mitochondria. The maximum duration for data acquisition was 30 minutes (i.e. five cells observed during 6 min). Images were captured with a Zeiss Axioplan II microscope along three dimensions in space and in time.
Patient-derived fibroblasts were cultured in DMEM containing 15% fetal calf serum and 0.5% DMSO, a concentration known to be inert on the mitochondrial behaviour.
[…] These concentrations are consistent with circulating levels of most drugable small molecules. They are within the range of doses centered on cMax when PK/PD (Pharmacokinetic/Pharmacodynamic) studies are available.
The negative control consists in affected cells treated with the vehicle only (DMSO), the positive control consists in healthy cells treated with the vehicle only (DMSO).
Reference compounds were tested on affected cells and compared to the 2 controls.
All raw data were expressed as a percent of control values (Healthy control=100%, AD control=0%).
Data analysis of the signature variables was particularly tuned to identify bifurcation in the logic of the descriptor measured. These bifurcations and the type of adaptation put in place by the mitochondrial reticular network give us significant insights on how the cell adapts to the test element. Impact of the disease on each individual variable was analyzed through a classical linear analysis with an analysis of variance (ANOVAs). Significant differences between groups are sought through a Bonferroni post-hoc analysis.

[2] = cited from earlier work
[3] = across tested doses (0.1, 1, 10 μM)
[4] = across tested doses (0.1, 1, 10 μM; imatinib also 0.05 μM)

SMILES | overall rescue of the diseased (AD) phenotype, weighted by discriminant equation ([1]; 1 μM) | overall rescue of the diseased (AD) phenotype, weighted by discriminant equation ([1]; 10 μM) | V5 (average cell area or dispersion descriptor of the areas of cells), % of phenotypic rescue ([1]; 1 and 10 μM) | overall rescue / reversal of the AD-signature, dose-response [1] | V7 (total area of regions containing entwined mitochondria to the total cell area), % of phenotypic rescue [1, 3] | V19 (frequency of mitochondria displaying an area between 2.6 and 3.1 μm^2), % of phenotypic rescue [1, 3] | V3 (dispersion descriptor of the moving speeds of mitochondria), % of phenotypic rescue [1, 4] | V11 (cell area covered with mitochondria), % of phenotypic rescue [1, 4] | V3 (dispersion descriptor of the moving speeds of mitochondria), % of phenotypic rescue ([1]; 0.05 μM) | V5 (average cell area or dispersion descriptor of the areas of cells), % of phenotypic rescue ([1]; 0.05 μM) | V7 (total area of regions containing entwined mitochondria to the total cell area), % of phenotypic rescue ([1]; 0.05 μM) | V11 (cell area covered with mitochondria), % of phenotypic rescue ([1]; 0.05 μM) | V19 (frequency of mitochondria displaying an area between 2.6 and 3.1 μm^2), % of phenotypic rescue ([1]; 0.05 μM) | overall rescue of the diseased (AD) phenotype, weighted by discriminant equation ([1]; 0.05 μM) | overall rescue of the diseased (AD) phenotype ([1]; doses lower than 0.05 μM (not shown)) | overall rescue of the diseased (AD) phenotype, weighted by discriminant equation ([1]; 0.1 μM) | V5 (average cell area or dispersion descriptor of the areas of cells), % of phenotypic rescue [1, 3] | bioavailability [2]
CC(=O)[C@H]1CC[C@H]2[C@@H]3CC[C@H]4C[C@H](O)CC[C@]4(C)[C@H]3CC[C@]12C [Allopregnanolone] | 36% | provided a dose-dependent rescue | rescue was obtained | ability to reverse the AD-signature in a dose-dependent manner | detrimental at the lowest tested dose and tended to improve with increasing concentration of the drug but not to a level where the disease phenotype was reversed | no effect | rescue was obtained at all tested doses | detrimental at the lowest tested dose and tended to improve with increasing concentration of the drug but not to a level where the disease phenotype was reversed | – | – | – | – | – | – | – | – | – | –
Cc1ccc(NC(=O)c2ccc(CN3CCN(C)CC3)cc2)cc1Nc1nccc(-c2cccnc2)n1 [Imatinib] | – | – | – | – | – | – | tended to improve with increasing doses | worsened | not affected | level comparable to that of healthy subject-derived cells | level comparable to that of healthy subject-derived cells | not affected | level comparable to that of healthy subject-derived cells | 54% | no effect | – | – | –
Oc1ccc(C=Cc2cc(O)cc(O)c2)cc1 [Resveratrol] | did not provide rescue to the AD phenotype but a detrimental effect with worsening of the diseased status | 63% | – | ability to reverse the AD-signature in a dose-dependent manner | seesaw effects | greatly worsened the disease-phenotype | efficient in reversing the disease phenotype | greatly worsened the disease-phenotype | – | – | – | – | – | – | – | did not provide rescue to the AD phenotype but a detrimental effect with worsening of the diseased status | seesaw effects | poor bioavailability
